The values below come from patent US20110111040A1, “POLYELECTROLYTE-ENCAPSULATED GOLD NANOPARTICLES CAPABLE OF CROSSING BLOOD-BRAIN BARRIER” (priority 2008, published 2011).

Data set [1] is described as follows: Electrophoretic mobility (ue) measurements as a function of pH. Format: physicochemical. Here is the method:
Electrophoretic mobility (ue) measurements were performed in a Malvern Zetasizer 2000 apparatus (Malvern Instruments, England) at room temperature. Measurements were carried out 24 hours after the preparation of the suspensions, and the pH was readjusted immediately before the mobility was measured. In FIG. 1. electrophoretic mobility as a function of the pH of the gold nanoparticles, creatine, gold-creatine composite particles, and albumin are shown. As observed, the gold nanoparticles present a negative electrophoretic mobility (ue) over the whole range of pH, characteristic of the citrate molecules adsorbed on them, becoming more negative with pH increase. […] On the contrary, albumin molecules present an isoelectric point between pH 4.5-5, becoming more negative with pH increase.

For data set [2] the following is noted: albumin alone; stated without own test; cited from earlier work.

With `CN(CC(=O)O)C(=N)N` [Creatine], the “electrophoretic mobility (ue)” value in data set [1] (acidic conditions) was “very close to zero”; in data set [1] (whole range of pH) it was “negative”.
With albumin, the isoelectric point in data set [1] was 4.5-5 pH. In data set [2], the “crossing of the blood brain barrier” value is recorded as “not able to cross the blood brain barrier”.
